Assay results reported in ChEMBL document CHEMBL2074317, “Functional characterization of an organic cation transporter (hOCT1) in a transiently transfected human cell line (HeLa)” (J Pharmacol Exp Ther, 1998).

Key:
[1] = target: T1, Solute carrier family 22 member 1 (Homo sapiens, UniProt O15245); experiment: TP_TRANSPORTER: inhibition of TEA uptake in OCT1-expressing HeLa cells; type: functional, cell-based
T1 sequence (O15245 whole entry): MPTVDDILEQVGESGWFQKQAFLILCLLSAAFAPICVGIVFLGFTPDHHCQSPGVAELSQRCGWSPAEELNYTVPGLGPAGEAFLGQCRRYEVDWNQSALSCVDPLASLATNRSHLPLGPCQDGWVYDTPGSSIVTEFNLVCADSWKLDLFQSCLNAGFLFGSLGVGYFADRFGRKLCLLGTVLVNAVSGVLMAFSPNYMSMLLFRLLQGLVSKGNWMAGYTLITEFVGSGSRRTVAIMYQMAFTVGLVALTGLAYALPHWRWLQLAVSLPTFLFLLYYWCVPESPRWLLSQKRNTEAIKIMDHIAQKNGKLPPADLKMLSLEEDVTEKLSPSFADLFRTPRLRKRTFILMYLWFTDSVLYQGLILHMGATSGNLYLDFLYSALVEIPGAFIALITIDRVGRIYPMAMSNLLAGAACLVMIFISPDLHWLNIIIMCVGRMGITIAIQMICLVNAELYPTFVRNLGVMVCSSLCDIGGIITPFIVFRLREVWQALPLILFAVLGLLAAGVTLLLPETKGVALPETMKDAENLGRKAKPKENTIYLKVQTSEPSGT

[2] = target: T1, Solute carrier family 22 member 1; experiment: TP_TRANSPORTER: inhibition of TEA uptake (TEA: 5 uM, Amantadine: 100 uM) in OCT1-expressing HeLa cells; type: functional, cell-based
[3] = substrate: CC[N+](CC)(CC)CC; experiment: cells, lysate or membranes named

Molecule: CCN(CC)CCNC(=O)c1ccc(N)cc1 [PROCAINAMIDE]
- Ki [1]: 73.9 µM

Molecule: CCN1/C(=C/c2ccc3ccccc3[n+]2CC)C=Cc2ccccc21
- Ki [1]: 2.73 µM

Molecule: Clc1cccc(Cl)c1N=C1NCCN1 [CLONIDINE]
- Ki [1]: 0.55 µM

Molecule: Cc1ncc2n1-c1ccc(Cl)cc1C(c1ccccc1F)=NC2 [MIDAZOLAM]
- Ki [1]: 3.7 µM

Molecule: CC[N+](CC)(CC)CC [TETRYLAMMONIUM]
- Ki [1]: 161 µM

Molecule: CCCC(=O)Nc1ccc(OCC(O)CNC(C)C)c(C(C)=O)c1 (stereo not given) [ACEBUTOLOL]
- Ki [1]: 95.8 µM

Molecule: CN/C(=N/CCSCc1nc[nH]c1C)NC#N [CIMETIDINE]
- Ki [1]: 166 µM

Molecule: CNCCCN1c2ccccc2CCc2ccccc21 [DESIPRAMINE]
- Ki [1]: 5.36 µM

Molecule: C[n+]1ccc(-c2ccccc2)cc1
- Ki [1]: 12.3 µM

Molecule: CC(=O)O[C@H]1C[C@@H]2CC[C@@H]3[C@H](CC[C@@]4(C)[C@H]3C[C@H]([N+]3(C)CCCCC3)[C@@H]4OC(C)=O)[C@@]2(C)C[C@@H]1N1CCCCC1 [VECURONIUM]
- Ki [1]: 232 µM

Molecule: C[C@]12C[C@H](O)[C@H]3[C@@H](CCC4=CC(=O)CC[C@@]43C)[C@@H]1CC[C@@H]2C(=O)CO [CORTICOSTERONE]
- Ki [1]: 7.02 µM

Molecule: NC12CC3CC(CC(C3)C1)C2 [AMANTADINE]
- Activity [2]: inhibitor [(at a rough estimate) 60 % of control]

Molecule: CNC(=O)c1cccnc1 [NICOTINYL METHYLAMIDE]
- Ki [1]: 7700 µM

Molecule: CCCCC[N+](CCCCC)(CCCCC)CCCCC [TETRAPENTYLAMMONIUM]
- Ki [1]: 7.46 µM

B1: Solute carrier family 22 member 1 (Homo sapiens) (protein)
chain: T1 sequence (O15245 whole entry)
- Km [3]: 229 µM
